Reference: ChEMBL document CHEMBL4507310, “Data for DCP probe A-1211212” (2021)

Tests used:
[1] = target: Urotensin-2 receptor (Homo sapiens) (UniProt Q9UKP6); assay: UT (h) Eurofins-Cerep binding assay; parameters: ligand concentration 0.1 nM; conditions: filed as agonist, Compound concentration 10.0 uM
[2] = target: Serine/threonine-protein kinase WNK3 (Homo sapiens) (UniProt Q9BYP7); conditions: Compound concentration 1000.0 nM
[3] = target: Myosin light chain kinase family member 4 (Homo sapiens) (UniProt Q86YV6); conditions: Compound concentration 1000.0 nM
[4] = target: Aurora kinase A (Homo sapiens) (UniProt O14965); conditions: Compound concentration 1000.0 nM
Aurora kinase A (Homo sapiens), sequence (O14965 whole entry): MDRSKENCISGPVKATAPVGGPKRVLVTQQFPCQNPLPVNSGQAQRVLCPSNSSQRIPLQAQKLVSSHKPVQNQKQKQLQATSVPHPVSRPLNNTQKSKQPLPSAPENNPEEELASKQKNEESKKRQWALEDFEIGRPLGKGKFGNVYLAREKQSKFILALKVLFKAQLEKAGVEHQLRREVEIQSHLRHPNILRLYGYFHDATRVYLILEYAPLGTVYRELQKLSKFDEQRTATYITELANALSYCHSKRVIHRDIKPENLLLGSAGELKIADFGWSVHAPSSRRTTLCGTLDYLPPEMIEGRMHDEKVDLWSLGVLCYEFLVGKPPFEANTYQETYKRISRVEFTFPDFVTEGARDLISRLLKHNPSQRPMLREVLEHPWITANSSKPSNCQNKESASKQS

[5] = target: Mitogen-activated protein kinase 7 (Homo sapiens) (UniProt Q13164); conditions: Compound concentration 1000.0 nM
[6] = target: T1, 5-hydroxytryptamine receptor 3A (Homo sapiens) (UniProt P46098); conditions: Compound concentration 10.0 uM
T1 sequence (whole entry): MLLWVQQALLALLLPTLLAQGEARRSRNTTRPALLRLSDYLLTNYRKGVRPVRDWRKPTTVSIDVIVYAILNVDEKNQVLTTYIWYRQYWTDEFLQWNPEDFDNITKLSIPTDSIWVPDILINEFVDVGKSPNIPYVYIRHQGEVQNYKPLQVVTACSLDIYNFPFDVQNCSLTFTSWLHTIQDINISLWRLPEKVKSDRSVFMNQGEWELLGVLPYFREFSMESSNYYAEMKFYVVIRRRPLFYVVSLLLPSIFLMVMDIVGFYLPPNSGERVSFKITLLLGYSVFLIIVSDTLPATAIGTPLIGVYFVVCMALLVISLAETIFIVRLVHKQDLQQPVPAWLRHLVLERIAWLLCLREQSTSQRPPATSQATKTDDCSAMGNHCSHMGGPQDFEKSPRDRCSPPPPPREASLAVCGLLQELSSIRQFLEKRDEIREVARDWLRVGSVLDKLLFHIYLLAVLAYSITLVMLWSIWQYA

[7] = target: Serine/threonine-protein kinase STK11 (Homo sapiens) (UniProt Q15831); conditions: Compound concentration 1000.0 nM
Serine/threonine-protein kinase STK11 (Homo sapiens), sequence (Q15831 whole entry): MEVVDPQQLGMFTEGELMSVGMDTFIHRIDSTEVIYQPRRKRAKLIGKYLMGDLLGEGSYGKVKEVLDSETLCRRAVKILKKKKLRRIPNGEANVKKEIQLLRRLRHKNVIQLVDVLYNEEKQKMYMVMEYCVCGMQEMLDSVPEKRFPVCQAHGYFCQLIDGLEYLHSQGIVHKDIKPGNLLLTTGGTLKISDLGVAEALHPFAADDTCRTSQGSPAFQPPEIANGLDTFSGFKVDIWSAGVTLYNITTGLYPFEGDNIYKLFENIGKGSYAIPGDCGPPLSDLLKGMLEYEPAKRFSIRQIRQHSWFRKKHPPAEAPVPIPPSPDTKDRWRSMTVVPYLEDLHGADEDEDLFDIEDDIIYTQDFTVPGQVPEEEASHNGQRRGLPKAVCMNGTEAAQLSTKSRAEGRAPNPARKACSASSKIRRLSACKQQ

[8] = target: T2, Muscarinic acetylcholine receptor M2 (Homo sapiens) (UniProt P08172); conditions: Compound concentration 10.0 uM
T2 sequence (whole entry): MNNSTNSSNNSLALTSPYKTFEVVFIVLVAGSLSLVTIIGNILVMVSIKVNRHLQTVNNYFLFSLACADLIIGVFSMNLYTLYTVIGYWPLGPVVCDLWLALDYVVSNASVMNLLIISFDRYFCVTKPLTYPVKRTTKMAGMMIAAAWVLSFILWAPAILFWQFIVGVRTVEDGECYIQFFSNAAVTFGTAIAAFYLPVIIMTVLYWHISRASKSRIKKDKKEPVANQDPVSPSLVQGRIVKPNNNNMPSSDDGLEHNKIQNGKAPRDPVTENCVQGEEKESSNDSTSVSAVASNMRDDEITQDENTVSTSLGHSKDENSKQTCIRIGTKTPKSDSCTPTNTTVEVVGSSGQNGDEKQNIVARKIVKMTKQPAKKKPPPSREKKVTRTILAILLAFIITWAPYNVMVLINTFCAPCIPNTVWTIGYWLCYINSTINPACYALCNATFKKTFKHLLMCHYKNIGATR

[9] = target: Type-1 angiotensin II receptor (Homo sapiens) (UniProt P30556); assay: AT1 (h) Eurofins-Cerep binding assay; parameters: ligand concentration 0.05 nM; conditions: filed as antagonist, Compound concentration 10.0 uM
Type-1 angiotensin II receptor (Homo sapiens), sequence (P30556 whole entry): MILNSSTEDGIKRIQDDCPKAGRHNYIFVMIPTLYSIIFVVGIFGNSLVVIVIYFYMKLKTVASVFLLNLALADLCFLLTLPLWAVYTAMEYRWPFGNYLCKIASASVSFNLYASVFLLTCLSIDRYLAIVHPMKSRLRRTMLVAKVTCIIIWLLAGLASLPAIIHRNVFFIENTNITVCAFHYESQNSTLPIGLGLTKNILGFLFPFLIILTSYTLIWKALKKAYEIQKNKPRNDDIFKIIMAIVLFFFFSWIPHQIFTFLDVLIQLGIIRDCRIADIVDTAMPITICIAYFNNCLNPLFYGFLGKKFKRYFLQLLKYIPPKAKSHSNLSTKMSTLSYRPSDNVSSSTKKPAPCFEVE

[10] = target: Tyrosine-protein kinase Tec (Homo sapiens) (UniProt P42680); conditions: Compound concentration 1000.0 nM
[11] = target: Cyclin-dependent kinase 2 (Homo sapiens) (UniProt P24941); conditions: Compound concentration 1000.0 nM
[12] = target: T3, Muscarinic acetylcholine receptor M1 (Homo sapiens) (UniProt P11229); conditions: Compound concentration 10.0 uM
T3 sequence (whole entry): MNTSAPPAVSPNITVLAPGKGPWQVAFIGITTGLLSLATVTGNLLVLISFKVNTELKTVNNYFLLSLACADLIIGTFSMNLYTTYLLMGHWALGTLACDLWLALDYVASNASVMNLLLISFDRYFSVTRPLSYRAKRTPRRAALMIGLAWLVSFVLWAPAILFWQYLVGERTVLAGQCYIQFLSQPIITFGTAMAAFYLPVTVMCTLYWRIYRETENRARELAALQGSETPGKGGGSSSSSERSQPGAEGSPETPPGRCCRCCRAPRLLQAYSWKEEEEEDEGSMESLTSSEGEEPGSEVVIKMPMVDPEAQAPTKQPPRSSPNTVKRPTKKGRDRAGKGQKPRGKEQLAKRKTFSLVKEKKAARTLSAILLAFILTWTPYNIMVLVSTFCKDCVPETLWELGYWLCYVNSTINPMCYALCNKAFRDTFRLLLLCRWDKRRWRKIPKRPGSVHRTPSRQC

[13] = target: Serine/threonine-protein kinase 16 (Homo sapiens) (UniProt O75716); conditions: Compound concentration 1000.0 nM
[14] = target: Non-receptor tyrosine-protein kinase TYK2 (Homo sapiens) (UniProt P29597); conditions: Compound concentration 1000.0 nM
[15] = target: Serine/threonine-protein kinase pim-2 (Homo sapiens) (UniProt Q9P1W9); conditions: Compound concentration 1000.0 nM
[16] = target: Beta-1 adrenergic receptor (Homo sapiens) (UniProt P08588); assay: Beta1 (h) Eurofins-Cerep binding assay; parameters: ligand concentration 0.3 nM; conditions: filed as agonist, Compound concentration 10.0 uM
Beta-1 adrenergic receptor (Homo sapiens), sequence (P08588 whole entry, looked up): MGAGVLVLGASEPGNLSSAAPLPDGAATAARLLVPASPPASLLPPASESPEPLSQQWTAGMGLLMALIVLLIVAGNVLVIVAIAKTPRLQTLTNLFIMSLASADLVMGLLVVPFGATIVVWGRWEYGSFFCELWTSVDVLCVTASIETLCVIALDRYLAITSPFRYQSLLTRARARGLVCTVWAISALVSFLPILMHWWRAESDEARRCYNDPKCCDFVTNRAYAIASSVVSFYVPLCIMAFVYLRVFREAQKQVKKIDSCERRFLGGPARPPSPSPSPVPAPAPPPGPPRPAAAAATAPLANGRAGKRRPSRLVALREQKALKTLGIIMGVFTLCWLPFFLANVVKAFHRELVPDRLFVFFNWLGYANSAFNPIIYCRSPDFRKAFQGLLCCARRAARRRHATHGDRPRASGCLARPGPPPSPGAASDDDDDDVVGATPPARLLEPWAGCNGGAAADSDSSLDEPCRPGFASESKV

[17] = target: Sodium/potassium-transporting ATPase (Sus scrofa) (UniProt P05027+P05024+D2WKD8+D2WKD7+F1ST41); assay: ATPase (Na+/K+) Eurofins-Cerep enzyme and uptake assay; type: protein-complex assay; conditions: Compound concentration 10.0 uM
[18] = target: Tyrosine-protein kinase Lyn (Homo sapiens) (UniProt P07948); conditions: Compound concentration 1000.0 nM
[19] = target: 5-hydroxytryptamine receptor 2B (Homo sapiens) (UniProt P41595); conditions: Compound concentration 10.0 uM
[20] = target: Calcium/calmodulin-dependent protein kinase type II subunit alpha (Homo sapiens) (UniProt Q9UQM7); conditions: Compound concentration 1000.0 nM
Calcium/calmodulin-dependent protein kinase type II subunit alpha (Homo sapiens), sequence (Q9UQM7 whole entry): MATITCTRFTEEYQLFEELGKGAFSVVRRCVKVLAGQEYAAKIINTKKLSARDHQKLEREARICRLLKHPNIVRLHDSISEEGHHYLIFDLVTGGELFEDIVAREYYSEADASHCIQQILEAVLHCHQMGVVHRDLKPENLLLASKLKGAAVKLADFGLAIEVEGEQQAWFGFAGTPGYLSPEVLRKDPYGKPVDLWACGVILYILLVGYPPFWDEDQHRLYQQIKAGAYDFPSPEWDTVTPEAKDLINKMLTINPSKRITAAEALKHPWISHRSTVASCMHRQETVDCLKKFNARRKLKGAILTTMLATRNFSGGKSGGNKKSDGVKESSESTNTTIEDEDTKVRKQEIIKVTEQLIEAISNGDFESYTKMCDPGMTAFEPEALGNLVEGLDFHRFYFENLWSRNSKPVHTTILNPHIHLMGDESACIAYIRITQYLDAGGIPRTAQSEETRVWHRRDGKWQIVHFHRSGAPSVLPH

[21] = target: MAO-B (amine oxidase [flavin-containing] B) (Homo sapiens, UniProt P27338); assay: MAO-B (h) recombinant enzyme Eurofins-Cerep enzyme and uptake assay; parameters: incubation time 60 min, incubation temperature 37°C, substrate/stimulus/tracer D-Luciferin derivative (4 µM); conditions: probe D-Luciferin derivative (4 µM), compound concentration 10 uM, read-out: % Inhibition of Control Values (Mean n=2)
[22] = target: Mitogen-activated protein kinase 14 (Homo sapiens) (UniProt Q16539); conditions: Compound concentration 1000.0 nM
[23] = target: Tyrosine-protein kinase ABL1 (Homo sapiens) (UniProt P00519); conditions: Compound concentration 1000.0 nM
[24] = target: NUAK family SNF1-like kinase 2 (Homo sapiens) (UniProt Q9H093); conditions: Compound concentration 1000.0 nM
[25] = target: Angiopoietin-1 receptor (Homo sapiens) (UniProt Q02763); conditions: Compound concentration 1000.0 nM
Angiopoietin-1 receptor (Homo sapiens), sequence (Q02763 whole entry): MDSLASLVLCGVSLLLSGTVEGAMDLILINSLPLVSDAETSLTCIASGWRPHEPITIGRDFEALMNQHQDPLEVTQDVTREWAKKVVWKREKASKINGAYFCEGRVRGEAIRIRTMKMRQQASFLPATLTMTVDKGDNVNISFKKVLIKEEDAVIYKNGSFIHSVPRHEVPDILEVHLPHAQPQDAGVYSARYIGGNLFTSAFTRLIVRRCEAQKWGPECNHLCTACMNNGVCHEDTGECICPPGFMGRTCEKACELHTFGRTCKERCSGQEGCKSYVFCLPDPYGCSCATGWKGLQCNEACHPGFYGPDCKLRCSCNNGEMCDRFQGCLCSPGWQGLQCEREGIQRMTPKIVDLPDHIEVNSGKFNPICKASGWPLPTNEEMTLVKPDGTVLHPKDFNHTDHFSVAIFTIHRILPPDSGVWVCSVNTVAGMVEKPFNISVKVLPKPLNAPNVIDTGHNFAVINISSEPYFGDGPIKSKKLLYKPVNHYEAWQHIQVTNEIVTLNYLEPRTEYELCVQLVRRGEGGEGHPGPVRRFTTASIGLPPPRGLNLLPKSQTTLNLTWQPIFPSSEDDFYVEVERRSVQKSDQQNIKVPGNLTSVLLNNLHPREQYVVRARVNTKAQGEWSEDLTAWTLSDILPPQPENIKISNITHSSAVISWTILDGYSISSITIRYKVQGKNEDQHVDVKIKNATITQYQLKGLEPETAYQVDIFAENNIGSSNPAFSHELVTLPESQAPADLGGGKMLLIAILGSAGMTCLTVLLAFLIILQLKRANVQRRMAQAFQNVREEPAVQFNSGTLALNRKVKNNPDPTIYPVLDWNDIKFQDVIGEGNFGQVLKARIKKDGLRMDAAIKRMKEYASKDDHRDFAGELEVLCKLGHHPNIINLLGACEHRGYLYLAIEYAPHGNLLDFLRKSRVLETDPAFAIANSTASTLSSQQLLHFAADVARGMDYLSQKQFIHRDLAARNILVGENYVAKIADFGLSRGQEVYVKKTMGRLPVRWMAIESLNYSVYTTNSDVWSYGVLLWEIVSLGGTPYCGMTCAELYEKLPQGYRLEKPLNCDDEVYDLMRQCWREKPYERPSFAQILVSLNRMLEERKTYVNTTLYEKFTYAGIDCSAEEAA

Serine/threonine-protein kinase WNK3 (Homo sapiens), sequence (Q9BYP7 whole entry): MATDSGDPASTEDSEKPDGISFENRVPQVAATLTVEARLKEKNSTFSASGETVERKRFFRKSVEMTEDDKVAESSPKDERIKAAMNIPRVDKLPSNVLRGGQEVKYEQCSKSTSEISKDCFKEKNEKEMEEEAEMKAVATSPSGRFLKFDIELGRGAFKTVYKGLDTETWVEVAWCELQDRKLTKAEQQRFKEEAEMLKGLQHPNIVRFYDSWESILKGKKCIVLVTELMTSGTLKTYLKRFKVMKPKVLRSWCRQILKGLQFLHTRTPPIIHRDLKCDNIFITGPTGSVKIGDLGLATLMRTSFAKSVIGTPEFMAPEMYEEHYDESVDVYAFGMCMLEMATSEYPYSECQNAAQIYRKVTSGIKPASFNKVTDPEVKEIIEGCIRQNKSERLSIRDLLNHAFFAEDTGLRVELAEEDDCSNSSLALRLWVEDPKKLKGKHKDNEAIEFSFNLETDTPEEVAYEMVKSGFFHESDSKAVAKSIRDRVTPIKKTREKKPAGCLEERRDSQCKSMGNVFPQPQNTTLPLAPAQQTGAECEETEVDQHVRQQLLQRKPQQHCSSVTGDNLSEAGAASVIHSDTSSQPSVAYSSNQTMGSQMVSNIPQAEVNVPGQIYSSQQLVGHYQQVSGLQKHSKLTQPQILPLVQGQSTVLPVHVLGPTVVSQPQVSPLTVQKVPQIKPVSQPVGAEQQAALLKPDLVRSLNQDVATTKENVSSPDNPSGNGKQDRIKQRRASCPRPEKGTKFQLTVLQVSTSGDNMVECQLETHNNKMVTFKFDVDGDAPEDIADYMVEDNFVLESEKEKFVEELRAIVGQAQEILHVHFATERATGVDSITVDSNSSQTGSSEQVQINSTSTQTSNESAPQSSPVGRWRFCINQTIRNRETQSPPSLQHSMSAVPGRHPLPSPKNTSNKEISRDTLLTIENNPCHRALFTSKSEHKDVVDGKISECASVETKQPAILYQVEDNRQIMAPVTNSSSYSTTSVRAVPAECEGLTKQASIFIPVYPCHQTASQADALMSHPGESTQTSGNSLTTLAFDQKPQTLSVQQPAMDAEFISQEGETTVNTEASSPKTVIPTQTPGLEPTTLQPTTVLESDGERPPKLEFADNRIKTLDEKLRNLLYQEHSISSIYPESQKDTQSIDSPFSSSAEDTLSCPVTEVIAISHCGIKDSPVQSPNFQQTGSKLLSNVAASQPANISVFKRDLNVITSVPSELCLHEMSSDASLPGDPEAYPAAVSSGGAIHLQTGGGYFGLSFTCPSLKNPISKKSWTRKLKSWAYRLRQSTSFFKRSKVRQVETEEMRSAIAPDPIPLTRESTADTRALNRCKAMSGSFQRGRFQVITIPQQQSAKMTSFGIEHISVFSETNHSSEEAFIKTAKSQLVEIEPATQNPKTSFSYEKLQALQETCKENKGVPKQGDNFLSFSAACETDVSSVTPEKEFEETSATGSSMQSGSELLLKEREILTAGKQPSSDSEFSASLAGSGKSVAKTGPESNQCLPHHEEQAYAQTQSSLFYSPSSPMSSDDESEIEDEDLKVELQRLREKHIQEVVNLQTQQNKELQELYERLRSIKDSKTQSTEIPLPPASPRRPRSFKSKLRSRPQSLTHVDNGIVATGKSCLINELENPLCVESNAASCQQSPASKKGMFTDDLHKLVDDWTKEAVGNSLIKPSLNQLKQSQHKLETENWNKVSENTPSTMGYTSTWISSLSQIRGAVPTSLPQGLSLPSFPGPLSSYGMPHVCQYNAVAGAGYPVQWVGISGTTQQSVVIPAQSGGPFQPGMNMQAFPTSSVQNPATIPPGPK

CO[C@H]1CC[C@H](CNc2ccc(S(=O)(=O)NC(=O)c3ccc(N4CCN(CC5=C(c6ccc(Cl)cc6)CC(C)(C)CC5)CC4)cc3Oc3cnc4[nH]ccc4c3)cc2[N+](=O)[O-])CC1 [A-1211212]
% Inhibition of Control Specific Binding (Mean n=2) [1]: 8.6%
residual activity [2]: 100%
residual activity [3]: 98%
residual activity [4]: 100%
residual activity [5]: 88%
inhibition [6]: 7.56%
residual activity [7]: 59%
inhibition [8]: -2.68%
% Inhibition of Control Specific Binding (Mean n=2) [9]: 19.3%
residual activity [10]: 74%
residual activity [11]: 100%
inhibition [12]: 4.59%
residual activity [13]: 79%
residual activity [14]: 67%
residual activity [15]: 88%
% Inhibition of Control Specific Binding (Mean n=2) [16]: -10.9%
% Inhibition of Control Values (Mean n=2) [17]: 5.4%
residual activity [18]: 74%
inhibition [19]: 3.54%
residual activity [20]: 68%
inhibition at 60 min, 10 µM [21]: 16.9%
residual activity [22]: 83%
residual activity [23]: 71%
residual activity [24]: 95%
residual activity [25]: 69%

O=C(NS(=O)(=O)c1ccc(NCC2CCOCC2)c([N+](=O)[O-])c1)c1ccc(N2CCN(Cc3ccc(C(F)(F)F)cc3-c3ccc(Cl)cc3)CC2)cc1Oc1cnc2[nH]ccc2c1 [A-1210227]
% Inhibition of Control Specific Binding (Mean n=2) [1]: 2.7%
residual activity [2]: 100%
residual activity [3]: 100%
residual activity [4]: 96%
residual activity [5]: 100%
inhibition [6]: 8.67%
residual activity [7]: 100%
inhibition [8]: 1.6%
% Inhibition of Control Specific Binding (Mean n=2) [9]: -3.9%
residual activity [10]: 71%
residual activity [11]: 100%
inhibition [12]: -6.07%
residual activity [13]: 91%
residual activity [14]: 73%
residual activity [15]: 73%
% Inhibition of Control Specific Binding (Mean n=2) [16]: -8.2%
% Inhibition of Control Values (Mean n=2) [17]: 19.7%
residual activity [18]: 99%
inhibition [19]: -2.34%
residual activity [20]: 87%
inhibition at 60 min, 10 µM [21]: -4.3%
residual activity [22]: 97%
residual activity [23]: 100%
residual activity [24]: 88%
residual activity [25]: 80%
